Entries after “also recorded” stand apart in the source; their conditions may differ.

Series [1] has as its target T1, human Edg-4 receptor (Homo sapiens, UniProt Q9HBW0).
T1 construct: IC50 Edg-4; other: agonist, calcium mobilization; potency relative to compound 101; calcium response (agonist)
Nature of the series: Calcium mobilization assay (FLIPR), HTC rat hepatoma cells transfected with human Edg-4. Particulars: for inhibition of LPA-induced calcium mobilization, human Edg-4: clonal HTC cell line, FIG. 11; for IC50: inhibition; for IC50 / EC50: calcium mobilization; for EC50: agonist; for potency relative to compound 101: dose response curve, FIG. 2. The class given is cell-based. From the text:
(§1) LPA receptors such as Edg-4, couple to calcium effector pathways, and result in increases in intracellular calcium following receptor activation (An et al., Molecular Pharmacology, 54:881-888, 1998, incorporated herein by reference). This biological response lends itself to a very efficient, high-throughput screen using a Fluorescence Imaging Plate Reader (FLIPR; Molecular Devices, Sunnyvale, Calif.). The FLIPR system is a real-time, cell-based assay system with continuous fluorescence detection using a cooled CCD camera. The FLIPR system was used to developing an Edg-4 receptor screen. Rat hepatoma cells stably expressing Edg-4 receptor were plated on 384-well plates and loaded with a calcium dye loading kit (Molecular Devices, Sunnyvale, Calif.) for 1 hour at room temperature. Cells were then placed on the FLIPR^354 (Molecular Devices, Sunnyvale, Calif.) and excited by an argon laser at 488 nm. The data for the entire 384-well plate was updated every second. An integrated robotic pipettor allowed for simultaneous compound addition into each individual well in the plate.

The next series deals with rat Edg-4 receptor. Nature of the series: LPA induced calcium mobilization, HTC cells transfected with pooled rat Edg-4 clones. Particulars: pooled HTC population, FIG. 12. Type of series: cell-based.
Excerpt: as §1

Another series addresses T2, mouse Edg-4 receptor (Mus musculus, UniProt Q9JL06).
T2 construct: expressed in transfected cells; host or cells: HTC rat hepatoma cells, pooled population
Nature of the series: LPA induced calcium mobilization, HTC cells transfected with pooled mouse Edg-4 clones. Type of series: cell-based. The conditions noted are these: pooled HTC population, FIG. 13.
Excerpt: as §1

In the next series the target is T3, Edg-1 (Homo sapiens, UniProt P21453).
T3 construct: expressed in transfected cells; host or cells: HTC rat hepatoma cells (from the earlier reading)
T3 sequence (P21453 whole entry): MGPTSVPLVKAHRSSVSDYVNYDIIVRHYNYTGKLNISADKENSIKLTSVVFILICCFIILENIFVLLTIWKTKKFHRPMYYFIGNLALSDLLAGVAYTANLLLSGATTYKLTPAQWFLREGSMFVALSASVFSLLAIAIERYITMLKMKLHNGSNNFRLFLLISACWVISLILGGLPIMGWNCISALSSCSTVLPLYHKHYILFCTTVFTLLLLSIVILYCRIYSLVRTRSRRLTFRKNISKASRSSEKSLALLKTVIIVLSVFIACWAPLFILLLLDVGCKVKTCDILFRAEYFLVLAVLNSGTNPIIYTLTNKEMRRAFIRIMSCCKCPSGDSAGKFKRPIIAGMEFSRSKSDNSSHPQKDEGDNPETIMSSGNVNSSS
Nature of the series: Calcium mobilization assay (FLIPR), HTC cells expressing Edg 1. The class given is cell-based. The conditions noted are these: for IC50: inhibition; for EC50: agonist.

The target of a further series is T4, Edg-2 (Homo sapiens, UniProt Q92633).
T4 construct: expressed in transfected cells; host or cells: HTC rat hepatoma cells (from the earlier reading)
T4 sequence (Q92633 whole entry): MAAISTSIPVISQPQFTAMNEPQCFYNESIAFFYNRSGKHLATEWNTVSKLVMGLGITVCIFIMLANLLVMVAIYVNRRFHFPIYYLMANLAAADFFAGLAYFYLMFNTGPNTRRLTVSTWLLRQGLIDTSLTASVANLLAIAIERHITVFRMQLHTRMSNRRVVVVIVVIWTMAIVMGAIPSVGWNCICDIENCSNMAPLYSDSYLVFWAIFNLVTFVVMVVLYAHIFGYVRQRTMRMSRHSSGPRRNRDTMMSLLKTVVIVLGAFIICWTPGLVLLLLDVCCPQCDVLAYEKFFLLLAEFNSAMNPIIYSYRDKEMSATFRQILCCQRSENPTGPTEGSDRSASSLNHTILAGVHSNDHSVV
As to the kind of experiment: Calcium mobilization assay (FLIPR), HTC cells expressing Edg 2. The class given is cell-based. Particulars: for IC50: inhibition; for EC50: agonist.

A further series addresses T5, Edg-3 (Homo sapiens, UniProt Q99500).
T5 construct: expressed in transfected cells; host or cells: HTC rat hepatoma cells (from the earlier reading)
As to the kind of experiment: Calcium mobilization assay (FLIPR), HTC cells expressing Edg 3. Type of series: cell-based. The conditions noted are these: for IC50: inhibition; for EC50: agonist.

In series [2] the test system is human Edg-4 receptor. Nature of the series: Calcium mobilization assay (FLIPR), HTC rat hepatoma cells transfected with human Edg-4. Particulars: Edg-4 relative to other Edg receptors; for Fold-selectivity for Edg-4 (IC50): antagonists; for Fold Selectivity for Edg-4 (EC50): agonists. Type of series: cell-based.
Excerpt: as §1

A further series has as its target T6, Edg-5 (Homo sapiens, UniProt O95136).
T6 construct: expressed in transfected cells; host or cells: HTC rat hepatoma cells (from the earlier reading)
Nature of the series: Calcium mobilization assay (FLIPR), HTC cells expressing Edg 5. The class given is cell-based. The conditions noted are these: for IC50: inhibition; for EC50: agonist.

The target in the next series is T7, Edg-6 (Homo sapiens, UniProt O95977).
T7 construct: expressed in transfected cells; host or cells: HTC rat hepatoma cells (from the earlier reading)
T7 sequence (O95977 1-384): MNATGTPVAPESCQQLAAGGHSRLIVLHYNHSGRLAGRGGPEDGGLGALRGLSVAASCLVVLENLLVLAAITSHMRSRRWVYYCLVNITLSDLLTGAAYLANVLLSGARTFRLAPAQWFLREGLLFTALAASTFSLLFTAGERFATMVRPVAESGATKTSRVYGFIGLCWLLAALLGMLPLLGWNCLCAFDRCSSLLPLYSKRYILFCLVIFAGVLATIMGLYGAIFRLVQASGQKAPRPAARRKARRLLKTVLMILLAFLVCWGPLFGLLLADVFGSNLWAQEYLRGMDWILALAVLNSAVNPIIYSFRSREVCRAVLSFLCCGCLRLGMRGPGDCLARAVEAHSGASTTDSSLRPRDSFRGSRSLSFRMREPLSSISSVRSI
Nature of the series: Calcium mobilization assay (FLIPR), HTC cells expressing Edg 6. The class given is cell-based. Particulars: for IC50: inhibition; for EC50: agonist.

Another series has as its target T8, Edg-7 (Homo sapiens, UniProt Q9UBY5).
T8 construct: expressed in transfected cells; host or cells: HTC rat hepatoma cells (from the earlier reading)
T8 sequence (Q9UBY5 1-353): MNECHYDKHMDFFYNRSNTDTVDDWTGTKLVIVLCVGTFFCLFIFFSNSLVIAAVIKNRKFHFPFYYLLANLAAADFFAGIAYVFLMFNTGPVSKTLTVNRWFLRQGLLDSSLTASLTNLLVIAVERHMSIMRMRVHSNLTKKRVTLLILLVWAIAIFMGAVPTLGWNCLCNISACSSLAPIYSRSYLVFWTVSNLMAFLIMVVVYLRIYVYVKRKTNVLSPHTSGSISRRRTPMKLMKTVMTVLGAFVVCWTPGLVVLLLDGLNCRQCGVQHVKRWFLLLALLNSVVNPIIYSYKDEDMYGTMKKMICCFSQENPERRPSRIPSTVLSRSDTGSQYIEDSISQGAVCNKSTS
As to the kind of experiment: Calcium mobilization assay (FLIPR), HTC cells expressing Edg 7. Type of series: cell-based. Particulars: calcium mobilization; for IC50: inhibition; for EC50: agonist.

The target in the next series is T9, Edg-8 (Homo sapiens, UniProt Q9H228).
T9 construct: expressed in transfected cells; host or cells: HTC rat hepatoma cells (from the earlier reading)
T9 sequence (Q9H228 whole entry): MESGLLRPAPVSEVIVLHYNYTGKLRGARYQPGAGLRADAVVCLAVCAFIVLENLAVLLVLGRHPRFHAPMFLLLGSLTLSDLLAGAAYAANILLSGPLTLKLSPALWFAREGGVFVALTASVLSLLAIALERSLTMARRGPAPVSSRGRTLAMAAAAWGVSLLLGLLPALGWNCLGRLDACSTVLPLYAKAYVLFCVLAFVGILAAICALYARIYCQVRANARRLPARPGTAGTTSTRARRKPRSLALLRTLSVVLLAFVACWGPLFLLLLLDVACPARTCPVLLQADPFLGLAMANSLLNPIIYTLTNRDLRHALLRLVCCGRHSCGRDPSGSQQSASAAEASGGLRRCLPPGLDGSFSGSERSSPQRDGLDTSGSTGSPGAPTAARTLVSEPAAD
Nature of the series: Calcium mobilization assay (FLIPR), HTC cells expressing Edg 8. The class given is cell-based. Particulars: for IC50: inhibition; for EC50: agonist.

The test system of a further series is HUVEC cells. As to the kind of experiment: Migration assay, SIP induced chemotaxis. The class given is cell-based, human. The conditions noted are these: FIG. 10. Here is the method:
(§2) Cells were plated in a 24 well format using Fluoroblok filter insert plates ([…]) or Fluoroblok matrigel coated filter insert plates (Becton Dickinson, San Diego, Calif.). The assay was a modified Boyden Chamber assay in which a cell suspension (1 ×10^5 cells/ml) was prepared in serum free medium and added to the top chamber. LPA or SIP (doses ranged from 0.1-10 μM in serum free medium) was added to the bottom chamber. Following a 20-24 hour incubation period, the number of cells migrating or invading into the lower chamber was quantitated by transferring the filter insert into a fresh 24-well plate containing 4 μg/ml calcein AM (Molecular Probes, Sunnyvale, Calif.) in Hank's Balanced Salt Solution and staining for one hour.
(§3) Detection was via fluorescent readout at 450 nm excitation/530 nm emission using a fluorimeter. The level of fluorescence correlated with cell number.

The nature of series [3]: Calcium mobilization assay, Null. Type of series: cell-based. Particulars: agonist.
Excerpt: as §1

The test system of series [4] is CaOV3 human ovarian cancer cells. Nature of the series: Migration assay, LPA stimulated chemotaxis. The class given is cell-based. The conditions noted are these: CaOV3, FIG. 9. How it is done: as §2, §3
For most cells types, no further manipulation was required. For CaOV3 human ovarian cancer cells, however, it was necessary that the cells be serum starved overnight prior to preparing the cell suspension. In addition, the filter inserts were coated with a solution of 1 mg/ml rat-tail Collagen I (BD, SanDiego, Calif.).

T2 sequence (Q9JL06 whole entry): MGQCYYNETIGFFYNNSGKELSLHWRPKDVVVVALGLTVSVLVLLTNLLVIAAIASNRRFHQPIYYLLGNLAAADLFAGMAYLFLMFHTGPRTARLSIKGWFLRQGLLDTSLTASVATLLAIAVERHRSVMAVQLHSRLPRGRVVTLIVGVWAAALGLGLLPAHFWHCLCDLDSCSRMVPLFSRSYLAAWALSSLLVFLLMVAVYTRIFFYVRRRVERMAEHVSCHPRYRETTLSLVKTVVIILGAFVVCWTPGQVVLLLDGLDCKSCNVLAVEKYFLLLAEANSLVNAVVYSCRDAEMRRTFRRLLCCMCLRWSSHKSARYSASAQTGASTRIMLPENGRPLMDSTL
T6 sequence (O95136 whole entry): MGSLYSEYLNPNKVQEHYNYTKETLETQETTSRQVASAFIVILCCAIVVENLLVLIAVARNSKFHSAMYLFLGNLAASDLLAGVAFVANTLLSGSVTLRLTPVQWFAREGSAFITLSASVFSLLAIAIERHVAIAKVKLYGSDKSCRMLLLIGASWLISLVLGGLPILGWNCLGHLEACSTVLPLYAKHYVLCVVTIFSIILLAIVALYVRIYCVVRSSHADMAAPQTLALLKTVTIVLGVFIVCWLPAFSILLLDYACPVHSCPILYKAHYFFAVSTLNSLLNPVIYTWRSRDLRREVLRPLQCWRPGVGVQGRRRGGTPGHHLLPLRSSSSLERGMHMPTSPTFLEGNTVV
T5 sequence (Q99500 whole entry): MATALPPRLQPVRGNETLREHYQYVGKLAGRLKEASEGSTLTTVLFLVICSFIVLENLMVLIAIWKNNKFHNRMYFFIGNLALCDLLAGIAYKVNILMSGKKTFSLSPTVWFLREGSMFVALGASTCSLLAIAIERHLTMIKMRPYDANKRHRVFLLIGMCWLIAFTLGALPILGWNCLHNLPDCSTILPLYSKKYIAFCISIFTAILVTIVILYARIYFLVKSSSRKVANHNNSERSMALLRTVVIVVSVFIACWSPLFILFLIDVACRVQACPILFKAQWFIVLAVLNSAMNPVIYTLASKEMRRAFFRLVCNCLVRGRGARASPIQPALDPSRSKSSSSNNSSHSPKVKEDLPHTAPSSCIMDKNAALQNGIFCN
T1 sequence (Q9HBW0 1-340 limits assumed): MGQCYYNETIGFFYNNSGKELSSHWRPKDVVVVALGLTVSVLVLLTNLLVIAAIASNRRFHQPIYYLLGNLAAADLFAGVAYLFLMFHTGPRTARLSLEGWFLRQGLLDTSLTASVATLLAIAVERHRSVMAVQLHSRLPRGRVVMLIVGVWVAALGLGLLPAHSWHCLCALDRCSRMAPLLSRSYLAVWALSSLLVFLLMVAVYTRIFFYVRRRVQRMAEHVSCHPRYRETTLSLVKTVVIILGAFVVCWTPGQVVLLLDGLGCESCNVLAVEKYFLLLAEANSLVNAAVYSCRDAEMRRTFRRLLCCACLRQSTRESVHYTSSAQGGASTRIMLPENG

For the compound `O=C(CC(=O)C(F)(F)F)Nc1cc(-c2ccc(F)cc2)n[nH]1` [Compound 107], the “inhibition of LPA-induced calcium mobilization, human Edg-4” value on human Edg-4 receptor [1] is reported as “dose dependent inhibition”. Further, the “inhibition of LPA-induced calcium mobilization, rat Edg-4” value with rat Edg-4 receptor is given as “dose dependent inhibition”. The “inhibition of LPA-induced calcium mobilization, mouse Edg-4” value on mouse Edg-4 receptor was “dose dependent inhibition”.

`O=C1NN=C(c2ccccc2)C(c2c[nH]c3ccccc23)N1` (single isomer, unassigned; (+)) [(+)-121, (+)-5-(1H-Indol-3-yl)-6-phenyl-4,5-dihydro-2H-[1,2,4]triazin-3-one] returned a melting point of 281 °C.

For `O=C(CC(=O)C(F)(F)F)Nc1cc(-c2ccc(Cl)c(Cl)c2)n[nH]1` [Compound 103, N-[5-(3,4-dichloro-phenyl)-2H-pyrazol-3-yl]4,4,4-trifluoro-3-oxo-butyramide], the IC50 at Edg-1 is more than 20 µM; on Edg-2 it was more than 20 µM; on Edg-3 it was more than 20 µM; on human Edg-4 receptor [1], 0.32 µM; at Edg-5, more than 20 µM; at Edg-6 it was more than 20 µM. Also, the IC50 on Edg-7 and at Edg-8 was more than 20 µM throughout. Also, in the series with human Edg-4 receptor [2], the “Fold-selectivity for Edg-4 (IC50)” value is on record as more than 62.5. Moreover, the “inhibition of SIP induced chemotaxis” value in the series on HUVEC cells is recorded as “did not inhibit”.

Turning to `FC(F)(F)c1ccc2nnc(-c3cccc(Cl)c3Cl)n2c1` [Compound 129, 3-(2,3-dichlorophenyl)-6-trifluoromethyl[1,2,4]triazolo[4,3-a]pyridine], the EC50 on Edg-1 is more than 25 µM; on Edg-2, more than 25 µM; at Edg-3 it was more than 25 µM; at human Edg-4 receptor [1] it was 5.4 µM; at Edg-5, more than 25 µM; at Edg-6 it was more than 25 µM. Further, the concentration giving a half-maximal response (EC50) (on Edg-7; on Edg-8; in [3]) was more than 25 µM throughout. The “Fold Selectivity for Edg-4 (EC50)” value in the series on human Edg-4 receptor [2] is recorded as more than 4.6.

Take “N-[5-(3,4-dichloro-phenyl)-2H-pyrazol-3-yl]4,4,4-trifluoro-3-oxo-butyramide [Compound 103]”: on human Edg-4 receptor [1] (HTC cells transfected with human Edg-4, FIG. 15), the “inhibition of calcium response elicited by agonist 125” value is “inhibited”. For the same compound, at human Edg-4 receptor [1], the “inhibition of LPA-induced calcium mobilization, human Edg-4” value is “dose dependent inhibition” and the “potency relative to compound 101” value was 2-3 fold. In addition, in the series on rat Edg-4 receptor, the “inhibition of LPA-induced calcium mobilization, rat Edg-4” value was “dose dependent inhibition”. Also, at mouse Edg-4 receptor, the “inhibition of LPA-induced calcium mobilization, mouse Edg-4” value was “dose dependent inhibition”. In addition, the “inhibition of LPA stimulated chemotaxis” value in [4] is recorded as “effectively blocked; also recorded: did inhibit”.

`FC(F)(F)c1ccc2nnc(-c3c(Cl)cccc3Cl)n2c1` [Compound 131, 3-(2,6-dichlorophenyl)-6-trifluoromethyl-[1,2,4]triazolo [4,3-a]pyridine]: the EC50 on Edg-1 was more than 25 µM; at Edg-2 it was more than 25 µM; on Edg-3 it was more than 25 µM; on human Edg-4 receptor [1], 9.9 µM; at Edg-5, more than 25 µM; at Edg-6, more than 25 µM. Further, the EC50 (at Edg-7; on Edg-8; in series [3]) was more than 25 µM throughout. In the series with human Edg-4 receptor [2], the “Fold Selectivity for Edg-4 (EC50)” value is on record as more than 2.5.

In the case of `COc1cccc(-c2cc(NC(=O)CC(=O)C(F)(F)F)[nH]n2)c1` [Compound 113, 4,4,4-trifluoro-N-[5-(3-methoxy-phenyl)-2H-pyrazol-3-yl]-3-oxo-butyramide], the “inhibition of LPA-induced calcium mobilization, human Edg-4” value at human Edg-4 receptor [1] is “dose dependent inhibition”. The “inhibition of LPA-induced calcium mobilization, rat Edg-4” value with rat Edg-4 receptor is on record as “dose dependent inhibition”. In addition, the “inhibition of LPA-induced calcium mobilization, mouse Edg-4” value on mouse Edg-4 receptor was “dose dependent inhibition”.

Regarding `COc1ccc(-c2cc(NC(=O)CC(=O)C(F)(F)F)[nH]n2)cc1` [Compound 105, 4,4-4-trifluoro-N-[5-(4-methoxy-phenyl)-2-pyrazol-3-yl]-3-oxo-butyramide], on human Edg-4 receptor [1], the “potency relative to compound 101” value was “less potent than compound 101”.

`O=C1NN=C(c2ccccc2)C(c2c[nH]c3ccccc23)N1` (centres unmarked) [Compound 121, 5-(1H-Indol-3-yl)-6-phenyl-4,5-dihydro-2H-[1,2,4]triazin-3-one]: the IC50 is more than 20 µM at Edg-1; more than 20 µM on Edg-2; more than 20 µM at Edg-3; 3.6 µM on human Edg-4 receptor [1]; more than 20 µM at Edg-5; more than 20 µM at Edg-6. Further, the IC50 at Edg-7 and on Edg-8 was more than 20 µM in each case. The “Fold-selectivity for Edg-4 (IC50)” value in the series on human Edg-4 receptor [2] is on record as more than 5.6.

These data come from US20050113283A1, “Methods of treating conditions associated with an EDG-4 receptor” (priority 2002, published 2005).
